Measurements reported in paper PMC4900628, “Critical Evaluation of P2X7 Receptor Antagonists in Selected Seizure Models” (PLoS ONE, 2016).
Several values for one entry are separate records, joined by “and”; a condition that tells them apart may be missing. Equal entries are not always repeated.

Assays:
mouse P2X7R = target: T1, mouse P2X7R (Mus musculus, UniProt Q9Z1M0); assay: fluorometric Ca2+ assay (ATP-induced [Ca2+]i response) in HEKmP2X7 cells; type: cell-based; settings: fluo-4, 1 mM ATP, read-out: Potency IC50 ± SEM, Mouse P2X7R
T1 construct: expressed in transfected cells
T1 sequence (Q9Z1M0 1-595): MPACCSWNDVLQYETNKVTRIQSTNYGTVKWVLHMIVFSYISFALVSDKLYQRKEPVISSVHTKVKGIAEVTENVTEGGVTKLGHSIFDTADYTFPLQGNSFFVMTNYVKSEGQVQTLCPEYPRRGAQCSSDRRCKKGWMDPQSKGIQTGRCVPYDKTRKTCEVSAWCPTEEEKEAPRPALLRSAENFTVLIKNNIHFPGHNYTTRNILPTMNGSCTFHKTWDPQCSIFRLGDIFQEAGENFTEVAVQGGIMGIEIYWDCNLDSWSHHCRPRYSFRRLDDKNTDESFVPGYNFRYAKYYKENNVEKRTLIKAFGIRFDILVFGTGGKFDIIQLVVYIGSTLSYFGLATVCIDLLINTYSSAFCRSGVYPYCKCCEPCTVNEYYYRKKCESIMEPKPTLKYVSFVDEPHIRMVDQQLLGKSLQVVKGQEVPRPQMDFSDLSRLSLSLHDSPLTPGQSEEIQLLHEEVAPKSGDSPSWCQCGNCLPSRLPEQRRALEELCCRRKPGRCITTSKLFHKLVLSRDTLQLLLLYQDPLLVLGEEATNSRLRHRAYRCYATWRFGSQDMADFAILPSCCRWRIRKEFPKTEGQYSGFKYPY
Protocol: (§1) Cells were grown in a humidified incubator at 37°C in an atmosphere supplemented with 5% CO2. […] HEK293mP2X7 were cultured in DMEM under similar conditions as described above, but containing 100 μg/ml zeocin (Invitrogen). […] Expression of the transgene was induced by supplementing the medium with 1 μg/ml tetracycline (Sigma-Aldrich, Taufkirchen, Germany) 24 h prior to the experiments. All fluorometric Ca^2+ assays in cell suspensions were performed in 384-microwell plates (Corning, No. 3655, Lowell, MA, USA) with a fluorescence-imaging microplate reader (POLARstar Omega, BMG Labtech, Offenburg, Germany) (for details, see [61, 68]). […] Microwell plates were repetitively scanned every 16 s in the fast scanning mode of the device. […] Data were normalized to the baseline values before ATP application (F/F0). […] ATP-solution was freshly prepared in Mg^2+-free HBS solution and adjusted to pH 7.4. Aliquots of stock solutions were stored at -20°C and freshly diluted with the appropriate HBS solution. […] Results are expressed as mean ± SEM. […] In the PTZ-T, the number of animals in the group with clonic seizures and the latency time were analysed using Fisher's exact probability test and the Mann-Whitney rank sum test, respectively. For multiple comparisons of the latency time a one-way ANOVA with the Holm-Sidak post hoc test was used. The influence of AFC on the plasma and brain concentrations of the antiepileptic drugs was statistical compared using the same procedure. In the PTZ-kindling model, the mean seizure stage within a group was calculated in relation to the number of PTZ-injections. Statistical comparison between vehicle- and compound-treated groups in this model was performed with two-way repeated measures ANOVA, followed by the Holm-Sidak post hoc test. […] In fully kindled rats, the calculated mean seizure stage within a group after vehicle- and compound-treatment were compared using a paired t-test. P < 0.05 was the accepted minimum level of significance.

human P2X7R = target: T2, human P2X7R (Homo sapiens, UniProt Q99572); assay: fluorometric Ca2+ assay (ATP-induced [Ca2+]i response) in HEKhP2X7 cells; type: cell-based; settings: fluo-4, 1 mM ATP, read-out: Potency IC50 ± SEM, Human P2X7R
T2 construct: expressed in transfected cells
T2 sequence (Q99572 1-595): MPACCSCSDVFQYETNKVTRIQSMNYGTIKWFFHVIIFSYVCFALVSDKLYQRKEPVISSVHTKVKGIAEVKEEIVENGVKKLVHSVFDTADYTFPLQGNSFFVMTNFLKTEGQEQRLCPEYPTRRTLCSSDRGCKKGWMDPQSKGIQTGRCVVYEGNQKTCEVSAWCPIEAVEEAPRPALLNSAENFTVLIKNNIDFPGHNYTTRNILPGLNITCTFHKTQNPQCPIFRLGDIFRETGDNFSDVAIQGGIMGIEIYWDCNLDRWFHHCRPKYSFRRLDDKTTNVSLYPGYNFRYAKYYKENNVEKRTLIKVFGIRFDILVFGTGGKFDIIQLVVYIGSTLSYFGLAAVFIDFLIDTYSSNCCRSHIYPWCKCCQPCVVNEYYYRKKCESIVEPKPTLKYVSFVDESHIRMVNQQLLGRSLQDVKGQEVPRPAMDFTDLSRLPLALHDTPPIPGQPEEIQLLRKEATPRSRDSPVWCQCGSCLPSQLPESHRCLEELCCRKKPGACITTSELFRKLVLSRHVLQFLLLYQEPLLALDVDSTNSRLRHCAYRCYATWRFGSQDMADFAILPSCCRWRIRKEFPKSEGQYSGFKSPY
Protocol: as §1

| SMILES | IC50 (mouse P2X7R) | IC50 (human P2X7R) |
| --- | --- | --- |
| O=C(NCC1(N2CCN(c3ccccc3)CC2)CCOCC1)c1cccnc1Sc1ccccc1 [JNJ-47965567, N-[[4-(4-phenyl-piperazin-1-yl)tetrahydro-2H-pyran-4-yl]-methyl]-2-(phenyl-thio) nicotinamide] | 10 ± 1 nM | 5 ± 0.5 nM |
| CCOc1ccc(Nc2ccc(/C(=C3C=C/C(=[N+](/CC)Cc4cccc(S(=O)(=O)[O-])c4)C=C/3C)c3ccc(N(CC)Cc4cccc(S(=O)(=O)O)c4)cc3C)cc2)cc1 [Brilliant Blue G] | 530 ± 150 nM | 980 ± 70 nM |
| Cc1c(S(=O)(=O)[O-])oc2c1C(=O)C(=O)c1c-2ccc2c1CCCC2(C)C.[Na+] [Tanshinone TIIAS, tanshinone IIS sulfonic sodium] | ≥ 6000 nM | 300 nM and 310 nM |
